This note sets out measurements from ChEMBL document CHEMBL5728119, “1,2-dithiolane compounds useful in neuroprotection, autoimmune and cancer diseases and conditions” (2020).

Assay [1] deals with Tyrosine-protein kinase Fyn (Homo sapiens, UniProt P06241). Put plainly: (§1) Radioisotope Filter Binding Assay: IC50 Table 13-20: The protocol calls for test compound of the invention to be incubated with kinase, substrate, cofactors, and radio-isotope-labeled ATP (33P-gamma-ATP). The reaction mixtures are then spotted onto filter papers which bind the radioisotope labeled catalytic product. Unreacted phosphate is removed via washing. The reagents used include base reaction buffer; 20 mM Hepes (pH 7.5), 10 mM MgCl2, 1 mM EGTA, 0.02% Brij35, 0.02 mg/ml BSA, 0.1 mM Na3VO4, 2 mM DTT, 1% DMSO. The reaction procedure include the following steps: (1) prepare indicated substrate in freshly prepared base reaction buffer, (2) deliver any required cofactors to the substrate solution above, (3) deliver indicated kinase into the substrate solution and gently mix, (4) deliver compounds in DMSO into the kinase reaction mixture by Acoustic technology (Echo550; nanoliter range), incubate for 20 minutes at room temperature, (5) deliver 33P-ATP (specific activity 10 μCi/μL) into the reaction mixture to initiate the reaction, (6) incubate kinase reaction for 2 hours at room temperature, (7) reactions are spotted onto P81 ion exchange paper, (8) detect kinase activity by filter-binding method.

The target in assay [2] is T1, Phosphatidylinositol 4,5-bisphosphate 3-kinase catalytic subunit delta isoform (Homo sapiens, UniProt O00329).
T1 sequence (O00329 whole entry): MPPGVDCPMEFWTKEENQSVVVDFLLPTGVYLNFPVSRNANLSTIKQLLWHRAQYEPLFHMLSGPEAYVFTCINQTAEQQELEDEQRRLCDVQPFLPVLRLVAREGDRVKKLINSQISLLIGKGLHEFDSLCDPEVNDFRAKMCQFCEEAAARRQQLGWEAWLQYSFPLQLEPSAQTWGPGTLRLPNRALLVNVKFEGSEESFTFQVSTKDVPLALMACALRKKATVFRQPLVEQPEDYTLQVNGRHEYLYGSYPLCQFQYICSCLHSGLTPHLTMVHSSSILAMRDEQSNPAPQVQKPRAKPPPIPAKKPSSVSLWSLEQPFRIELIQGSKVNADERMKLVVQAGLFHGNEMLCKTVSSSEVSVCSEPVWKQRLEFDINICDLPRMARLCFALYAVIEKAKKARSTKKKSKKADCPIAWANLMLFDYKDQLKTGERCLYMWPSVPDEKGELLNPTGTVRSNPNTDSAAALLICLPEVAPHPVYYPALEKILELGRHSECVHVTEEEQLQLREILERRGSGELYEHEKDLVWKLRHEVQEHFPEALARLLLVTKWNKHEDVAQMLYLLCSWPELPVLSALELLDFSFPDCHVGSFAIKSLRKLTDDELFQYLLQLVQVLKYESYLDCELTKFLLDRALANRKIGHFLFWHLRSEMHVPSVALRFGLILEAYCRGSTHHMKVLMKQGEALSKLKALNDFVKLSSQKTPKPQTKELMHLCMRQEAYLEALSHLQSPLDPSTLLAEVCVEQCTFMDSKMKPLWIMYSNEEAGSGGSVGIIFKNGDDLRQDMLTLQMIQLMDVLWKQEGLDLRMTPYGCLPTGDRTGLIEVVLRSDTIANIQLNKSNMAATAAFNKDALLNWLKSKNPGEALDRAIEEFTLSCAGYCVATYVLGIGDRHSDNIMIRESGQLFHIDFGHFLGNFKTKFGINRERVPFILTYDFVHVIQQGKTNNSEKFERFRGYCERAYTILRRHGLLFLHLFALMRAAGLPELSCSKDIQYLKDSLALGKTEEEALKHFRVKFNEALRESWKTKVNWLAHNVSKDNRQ
The description is as §1.

Sequence of Tyrosine-protein kinase Fyn (P06241 whole entry): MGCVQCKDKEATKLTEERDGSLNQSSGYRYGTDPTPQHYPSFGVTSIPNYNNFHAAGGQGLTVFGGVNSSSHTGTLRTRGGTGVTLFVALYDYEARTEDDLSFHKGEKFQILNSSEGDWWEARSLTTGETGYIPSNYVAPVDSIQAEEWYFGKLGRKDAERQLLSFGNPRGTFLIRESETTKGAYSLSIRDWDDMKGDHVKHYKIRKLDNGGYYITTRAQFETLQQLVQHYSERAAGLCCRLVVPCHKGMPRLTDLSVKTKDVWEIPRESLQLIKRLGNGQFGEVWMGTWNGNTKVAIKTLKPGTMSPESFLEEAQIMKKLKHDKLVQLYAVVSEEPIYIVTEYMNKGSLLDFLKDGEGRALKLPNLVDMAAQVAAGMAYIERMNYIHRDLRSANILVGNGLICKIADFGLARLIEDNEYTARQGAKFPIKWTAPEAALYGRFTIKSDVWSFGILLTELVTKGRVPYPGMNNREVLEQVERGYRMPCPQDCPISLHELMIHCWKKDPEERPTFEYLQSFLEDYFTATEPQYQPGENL

Consider `Nc1ncnc2c1c(-c1ccc(Oc3ccccc3)c(F)c1)nn2CC1SSCC1OC(=O)c1ccccc1` (configuration not stated), for which the IC50 in assay [1] was determined as 0.75 µM. With `Nc1nc2cc(-c3nn(C[C@@H]4SSC[C@H]4OC(=O)c4ccccc4)c4ncnc(N)c34)ccc2o1` (relative stereo), the IC50 in assay [2] was 0.75 µM.

By IC50 is commonly meant the concentration that gives 50% inhibition.
